Reference: US8999956B2, “N-[(het)arylalkyl)] pyrazole(thio)carboxamides and their heterosubstituted analogues” (Bayer Intellectual Property GmbH, priority 2010, dated 2015)

Assay: log P by HPLC on reversed-phase column (EEC Directive 79/831 Annex V.A8)
Format: physicochemical
Procedure: In table 1, the log P values were determined in accordance with EEC Directive 79/831 Annex V.A8 by HPLC (High Performance Liquid Chromatography) on a reversed-phase column (C18), using the method described below: Temperature: 40° C.; […]

| SMILES | logP | chromatographic logP (reversed-phase HPLC column (C18), HPLC, 0.1% aqueous formic acid and acetonitrile, 40° C., read-out: log P) |
| --- | --- | --- |
| CCCN(CCOc1ccccc1)C(=O)c1c(C(F)F)nn(C)c1Cl [Example 7] | 3.21 | – |
| CC(C)N(CC(=O)Nc1ccccc1)C(=O)c1c(C(F)F)nn(C)c1Cl [Example 2] | 2.43 | – |
| Cc1ccc(C(C)CCN(C)C(=O)c2c(C(F)F)nn(C)c2Cl)o1 (stereo not shown) [Example 110] | 3.02 | – |
| CC(CSCc1ccco1)N(C(=O)c1c(C(F)F)nn(C)c1F)C1CC1 (stereo not shown) [Example 236] | 3.11 | – |
| CCN(C(=O)c1c(C(F)F)nn(C)c1Cl)C(C)COc1ccc(C)cc1 (stereo not shown) [Example 39] | 3.48 | – |
| CN(CCN(C)C(=O)c1c(C(F)F)nn(C)c1Cl)C(=O)c1ccccc1 [Example 231] | 1.76 | – |
| CC(CC[Si](C)(C)C)N(C(=O)c1c(C(F)F)nn(C)c1F)C1CC1 (stereo not shown) [Example 304] | 4.39 | – |
| Cn1nc(C(F)F)c(C(=O)NCC#Cc2cc3ccccc3s2)c1F [Example 277] | 3.19 | – |
| Cn1nc(C(F)F)c(C(=O)NCCCc2cc3ccccc3o2)c1F [Example 92] | 2.90 | – |
| Cn1nc(C(F)F)c(C(=O)N(CCCc2cc3ccccc3o2)C2CC2)c1F [Example 91] | 3.52 | – |
| Cc1cc(C)nc(CCC(C)NC(=O)c2c(C(F)F)nn(C)c2Cl)c1 (stereo not shown) [Example 64] | 1.81 | – |
| CC(CSCc1ccco1)N(C(=O)c1c(C(F)F)nn(C)c1Cl)C1CC1 (stereo not shown) [Example 237] | 3.27 | – |
| CCCCC1CCCCC1NC(=S)c1c(C(F)F)nn(C)c1F (stereo not shown) [Example 332] | 4.86 | – |
| CCCN(CCOc1ccc(C(=O)OCC)cc1)C(=O)c1c(C(F)F)nn(C)c1Cl [Example 72] | 3.44 | – |
| Cc1ccsc1C#CCN(C(=O)c1c(C(F)F)nn(C)c1F)C1CC1 [Example 283] | 3.31 | – |
| CCN(CC=Cc1ccccc1)C(=O)c1c(C(F)F)nn(C)c1F [Example 264] | 3.02 | – |
| Cn1nc(C(F)F)c(C(=O)N(CCOc2ccc(Cl)cc2)C2CCC2)c1F [Example 50] | 3.78 | – |
| CC(C)(C)C#Cc1cccc(N)c1 [3-(3,3-dimethylbut-1-yn-1-yl)aniline] | – | 2.71 |
| Cc1ccc(SCC(C2CC2)N(C)C(=O)c2c(C(F)F)nn(C)c2Cl)cc1 (stereo not shown) [Example 41] | 3.85 | – |
| CC(CC1CCCCC1)N(C(=O)c1c(C(F)F)nn(C)c1Cl)C1CC1 (stereo not shown) [Example 371] | 4.56 | – |
| Cn1nc(C(F)F)c(C(=O)N(CC#Cc2ccccc2)C2CCCC2)c1F [Example 273] | 3.73 | – |
| CCCN(C(=O)c1c(C(F)F)nn(C)c1F)C(C)COc1ccccc1-c1ccccc1 (stereo not shown) [Example 30] | 4.32 | – |

| SMILES | logP | chromatographic logP (reversed-phase HPLC column (C18), HPLC, 0.1% aqueous formic acid and acetonitrile, 40° C., read-out: log P) |
| --- | --- | --- |
| CC(O)C1CCCCC1NC(=O)c1c(C(F)F)nn(C)c1F (single isomer, unassigned) [Example 342] | 2.08 isomer B | – |
| Cn1nc(C(F)F)c(C(=O)NCCCc2cc3ccccc3s2)c1F [Example 95] | 3.17 | – |
| CN(C(=O)c1c(C(F)F)nn(C)c1Cl)C1CCCCC1Cc1ccccc1 (stereo not shown) [Example 254] | 3.87 | – |
| C=CCC1CCCCC1N(C(=O)c1c(C(F)F)nn(C)c1Cl)C1CC1 (stereo not shown) [Example 347] | 4.16 | – |
| Cn1nc(C(F)F)c(C(=O)N(CC#Cc2cccs2)C2CC2)c1F [Example 282] | 3.00 | – |
| CCCN(CCOc1c(Cl)cc(Cl)cc1Cl)C(=O)c1c(C(F)F)nn(C)c1Cl [Example 205] | 4.56 | – |
| Cn1nc(C(F)F)c(C(=O)NC2(C(F)(F)F)CCCCC2)c1F [Example 387] | 3.00 | – |
| Cn1nc(C(F)F)c(C(=O)NC(C)(C)CCc2ccc(Cl)c(Cl)c2)c1Cl [Example 133] | 4.44 | – |
| Cc1cccc(C)c1OCCNC(=O)c1c(C(F)F)nn(C)c1Cl [Example 152] | 3.13 | – |
| CCCN(CC(=O)Nc1c(Cl)cc(Cl)cc1Cl)C(=O)c1c(C(F)F)nn(C)c1F [Example 200] | 2.96 | – |
| CC(CCc1ncc(C(F)(F)F)cc1Cl)N(C)C(=O)c1c(C(F)F)nn(C)c1Cl (stereo not shown) [Example 88] | 3.45 | – |
| C#CC1(NC(=O)c2c(C(F)F)nn(C)c2F)CCCCC1 [Example 385] | 2.56 | – |
| CC(CSCc1ccco1)N(C)C(=O)c1c(C(F)F)nn(C)c1F (stereo not shown) [Example 238] | 2.49 | – |
| CCC1(C)CC(NC(=O)c2c(C(F)F)nn(C)c2Cl)CC(C)(C)C1 (stereo not shown) [Example 362] | 4.44 | – |
| Cn1nc(C(F)F)c(C(=O)NC(C)(C)C#Cc2ccc(C#N)cc2)c1F [Example 284] | 2.82 | – |
| CCCN(CCOc1c(Cl)cc(Cl)cc1Cl)C(=O)c1c(C(F)F)nn(C)c1F [Example 204] | 4.37 | – |
| Cc1ccc2sc(C#CCN(C(=O)c3c(C(F)F)nn(C)c3F)C3CC3)cc2c1 [Example 285] | 4.26 | – |
| CN(CC(=O)OCc1ccccc1)C(=O)c1c(C(F)F)nn(C)c1Cl [Example 228] | 2.57 | – |
| Cn1nc(C(F)F)c(C(=O)NCCOc2ccc(Cl)cc2)c1Cl [Example 49] | 2.96 | – |
| Cn1nc(C(F)F)c(C(=O)N(CCCC2CC=CO2)C2CC2)c1F (stereo not shown) [Example 98] | 1.45 | – |
| Cn1nc(C(F)F)c(C(=O)N(CCOc2ccc(Cl)cc2)C2CCCC2)c1F [Example 55] | 4.13 | – |
| CN(CCCc1cc2ccccc2s1)C(=O)c1c(C(F)F)nn(C)c1F [Example 96] | 3.25 | – |

| SMILES | logP | chromatographic logP (reversed-phase HPLC column (C18), HPLC, 0.1% aqueous formic acid and acetonitrile, 40° C., read-out: log P) |
| --- | --- | --- |
| Cn1nc(C(F)F)c(C(=O)NCCCc2ccco2)c1F [Example 100] | 2.17 | – |
| Cn1nc(C(F)F)c(C(=O)N(C2CC2)C2CCCCC2C2CCCCC2)c1Cl (stereo not shown) [Example 373] | 5.59 | – |
| CCCCC1CCCC1NC(=S)c1c(C(F)F)nn(C)c1F (stereo not shown) [Example 308] | 4.39 | – |
| Cn1nc(C(F)F)c(C(=O)NCC(=O)Nc2c(Cl)cc(Cl)cc2Cl)c1Cl [Example 198] | 2.56 | – |
| Cc1ccc2sc(CCCN(C(=O)c3c(C(F)F)nn(C)c3F)C3CC3)cc2c1 [Example 106] | 4.21 | – |
| Cn1nc(C(F)F)c(C(=O)NCCOc2c(Cl)cc(Cl)cc2Cl)c1Cl [Example 201] | 3.80 | – |
| Cn1nc(C(F)F)c(C(=O)NC2CCCC2Sc2ncccn2)c1Cl (stereo not shown) [Example 257] | 2.26 | – |
| Cn1nc(C(F)F)c(C(=O)NC(CSc2ccccc2)C2CC2)c1Cl (stereo not shown) [Example 23] | 3.44 | – |
| CC(C)N(CCOc1c(Cl)cc(Cl)cc1Cl)C(=O)c1c(C(F)F)nn(C)c1F [Example 203] | 4.51 | – |
| CCCN(CCOc1ccccc1)C(=O)c1c(C(F)F)nn(C)c1F [Example 8] | 3.06 | – |
| CC(C)N(CCOc1ccc(Cl)cc1)C(=O)c1c(C(F)F)nn(C)c1F [Example 56] | 3.62 | – |
| CN(CCCc1cc2ccccc2o1)C(=O)c1c(C(F)F)nn(C)c1F [Example 93] | 3.00 | – |
| CC(C)C(C(=O)OCc1ccccc1)N(C)C(=O)c1c(C(F)F)nn(C)c1Cl (stereo not shown) [Example 229] | 3.48 | – |
| Cn1nc(C(F)F)c(C(=O)N(CCOc2c(Cl)cc(Cl)cc2Cl)C2CCCC2)c1Cl [Example 206] | 5.27 | – |
| CN(C(=O)c1c(C(F)F)nn(C)c1F)C1CCCCC1Cc1ccccc1 (stereo not shown) [Example 253] | 3.72 | – |
| Cn1nc(C(F)F)c(C(=O)NC2(C(=O)Nc3ccccc3)CCCC2)c1F [Example 3] | 2.46 | – |
| Cn1nc(C(F)F)c(C(=O)N(CCOc2c(Cl)cc(Cl)cc2Cl)C2COC2)c1Cl [Example 207] | 3.55 | – |
| Cn1nc(C(F)F)c(C(=O)NCCS(=O)(=O)c2ccc(Cl)cc2)c1Cl [Example 59] | 2.30 | – |
| CCCN(C(=O)c1c(C(F)F)nn(C)c1Cl)C(C)COc1ccccc1-c1ccccc1 (stereo not shown) [Example 31] | 4.51 | – |
| CC(COc1ccccc1)N(C)C(=O)c1c(C(F)F)nn(C)c1Cl (stereo not shown) [Example 15] | 2.78 | – |
| Cc1ccc(C(C)CCN(C(=O)c2c(C(F)F)nn(C)c2Cl)C2CC2)o1 (stereo not shown) [Example 108] | 3.56 | – |
| CCCN(CCOc1ccc(C(=O)OCC)cc1)C(=O)c1c(C(F)F)nn(C)c1F [Example 73] | 3.31 | – |

| SMILES | logP | chromatographic logP (reversed-phase HPLC column (C18), HPLC, 0.1% aqueous formic acid and acetonitrile, 40° C., read-out: log P) |
| --- | --- | --- |
| CN(CCC(=O)Nc1ccc(Cl)c(Cl)c1)C(=O)c1c(C(F)F)nn(C)c1F [Example 232] | 2.71 | – |
| CN(CCC(=O)Nc1ccc(Cl)c(Cl)c1)C(=O)c1c(C(F)F)nn(C)c1Cl [Example 233] | 2.86 | – |
| CCC1(C)CC(NC(=O)c2c(C(F)F)nn(C)c2F)CC(C)(C)C1 (stereo not shown) [Example 363] | 4.23 | – |
| CCCN(CCCOc1c(C)cc(C)cc1C)C(=O)c1c(C(F)F)nn(C)c1Cl [Example 234] | 4.39 | – |
| CC(C)N(CCOc1ccc(Cl)cc1)C(=O)c1c(C(F)F)nn(C)c1Cl [Example 53] | 3.78 | – |
| CC(CCc1ncc(C(F)(F)F)cc1Cl)N(C)C(=O)c1c(C(F)F)nn(C)c1F (stereo not shown) [Example 87] | 3.29 | – |
| Cc1ccsc1CCCN(C(=O)c1c(C(F)F)nn(C)c1F)C1CC1 [Example 105] | 3.33 | – |
| CC(COc1c(Cl)cc(Cl)cc1Cl)NC(=O)c1c(C(F)F)nn(C)c1F (stereo not shown) [Example 212] | 3.92 | – |
| CON(CCC(C)c1ccc(C)o1)C(=O)c1c(C(F)F)nn(C)c1Cl (stereo not shown) [Example 111] | 3.29 | – |
| CN(CC#Cc1ccccc1)C(=O)c1c(C(F)F)nn(C)c1F [Example 269] | 2.78 | – |
| CC(CCc1ncc(C(F)(F)F)cc1Cl)N(C(=O)c1c(C(F)F)nn(C)c1Cl)C1CC1 (stereo not shown) [Example 85] | 4.11 | – |
| CC(CCc1ccc(Cl)cc1Cl)NC(=O)c1c(C(F)F)nn(C)c1F (stereo not shown) [Example 186] | 3.79 | – |
| CCCN(CCOc1ccc(Cl)cc1)C(=O)c1c(C(F)F)nn(C)c1F [Example 57] | 3.53 | – |
| Cn1nc(C(F)F)c(C(=O)NC2(C(=O)Nc3ccccc3)CCCC2)c1Cl [Example 4] | 2.62 | – |
| Cn1nc(C(F)F)c(C(=O)NC(C)(C)C(=O)Nc2ccccc2)c1F [Example 24] | 2.10 | – |
| C=CCC1CCCCC1N(C(=O)c1c(C(F)F)nn(C)c1F)C1CC1 (stereo not shown) [Example 346] | 3.94 | – |
| Cn1nc(C(F)F)c(C(=O)N(C2CC2)C2CCCC2C2CCCC2)c1Cl (stereo not shown) [Example 369] | 4.83 | – |
| C#CC1(NC(=O)c2c(C(F)F)nn(C)c2Cl)CCCCC1 [Example 384] | 2.73 | – |
| Cc1ccc(C(C)CCN(C(=O)c2c(C(F)F)nn(C)c2F)C2CC2)o1 (stereo not shown) [Example 107] | 3.41 | – |
